We go through one compound from article PMC3005334 (Cell, 2010).

One test has as its target Erg4 (Saccharomyces cerevisiae, UniProt P25340). The class given is binding. The note with it: in vivo bound, LC-MS; natural synthesizing enzyme.
The next test has as its system Ypk1, Hal5, and Rck2. Briefly: In vitro small metabolite-protein binding assay. The following applies: fixed amount of protein; indicates specific binding. Also noted: species or system Saccharomyces cerevisiae.
The target in another test is T1, Ssk22 (Saccharomyces cerevisiae, UniProt P25390).
T1 sequence (P25390 1-1331): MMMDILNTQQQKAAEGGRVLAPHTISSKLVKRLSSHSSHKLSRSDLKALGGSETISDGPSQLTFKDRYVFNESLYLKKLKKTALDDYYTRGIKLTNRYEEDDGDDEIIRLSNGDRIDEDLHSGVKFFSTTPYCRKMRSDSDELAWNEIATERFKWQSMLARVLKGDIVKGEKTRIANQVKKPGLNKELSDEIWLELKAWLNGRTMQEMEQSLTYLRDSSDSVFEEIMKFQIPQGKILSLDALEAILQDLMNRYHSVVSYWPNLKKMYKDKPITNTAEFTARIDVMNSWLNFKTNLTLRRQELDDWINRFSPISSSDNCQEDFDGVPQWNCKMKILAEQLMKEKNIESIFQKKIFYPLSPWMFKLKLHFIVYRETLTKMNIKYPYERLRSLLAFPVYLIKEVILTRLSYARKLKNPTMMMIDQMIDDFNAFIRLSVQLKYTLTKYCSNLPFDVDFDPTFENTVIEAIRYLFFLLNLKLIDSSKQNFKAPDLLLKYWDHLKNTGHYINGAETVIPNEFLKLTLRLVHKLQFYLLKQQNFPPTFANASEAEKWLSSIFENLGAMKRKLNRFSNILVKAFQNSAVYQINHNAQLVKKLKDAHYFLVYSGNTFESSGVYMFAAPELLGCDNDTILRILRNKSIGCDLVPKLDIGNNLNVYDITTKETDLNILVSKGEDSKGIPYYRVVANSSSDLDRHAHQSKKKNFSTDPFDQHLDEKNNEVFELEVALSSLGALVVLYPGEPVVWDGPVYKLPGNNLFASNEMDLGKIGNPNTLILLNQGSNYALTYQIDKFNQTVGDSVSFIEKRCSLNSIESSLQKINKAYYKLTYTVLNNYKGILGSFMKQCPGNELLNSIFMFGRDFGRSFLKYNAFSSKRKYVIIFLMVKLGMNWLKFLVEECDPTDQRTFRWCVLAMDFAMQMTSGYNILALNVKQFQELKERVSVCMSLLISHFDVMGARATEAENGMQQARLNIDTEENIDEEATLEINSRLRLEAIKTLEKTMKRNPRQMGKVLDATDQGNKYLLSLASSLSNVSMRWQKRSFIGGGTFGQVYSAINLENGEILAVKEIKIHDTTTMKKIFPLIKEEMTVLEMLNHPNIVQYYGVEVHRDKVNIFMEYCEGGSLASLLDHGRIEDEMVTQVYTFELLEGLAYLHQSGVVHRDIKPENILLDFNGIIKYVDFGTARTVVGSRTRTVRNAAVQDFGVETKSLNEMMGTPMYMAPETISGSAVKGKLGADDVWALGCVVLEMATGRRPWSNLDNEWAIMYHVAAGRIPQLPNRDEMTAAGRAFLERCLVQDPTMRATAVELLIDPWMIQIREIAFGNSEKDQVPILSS
Briefly: Ssk22 protein levels purified from erg4Δ cells with exogenous ergosterol. The class given is cell-based. The note with it: erg4Δ mutant strain, exogenous ergosterol added to the medium.

Sequence of Erg4 (P25340 whole entry): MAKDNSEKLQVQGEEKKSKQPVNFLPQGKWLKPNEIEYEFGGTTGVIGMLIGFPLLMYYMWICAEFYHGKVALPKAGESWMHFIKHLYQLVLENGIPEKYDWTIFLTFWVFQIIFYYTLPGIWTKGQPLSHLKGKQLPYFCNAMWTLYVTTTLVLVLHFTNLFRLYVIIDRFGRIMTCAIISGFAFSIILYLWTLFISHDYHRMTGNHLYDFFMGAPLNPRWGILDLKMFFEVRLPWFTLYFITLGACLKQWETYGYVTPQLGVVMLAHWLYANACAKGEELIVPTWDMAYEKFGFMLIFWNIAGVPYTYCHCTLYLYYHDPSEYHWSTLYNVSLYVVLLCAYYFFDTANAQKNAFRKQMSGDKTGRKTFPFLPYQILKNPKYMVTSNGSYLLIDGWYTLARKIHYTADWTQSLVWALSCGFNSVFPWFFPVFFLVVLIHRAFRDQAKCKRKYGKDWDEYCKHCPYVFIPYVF

Turning to `CC(C)[C@@H](C)/C=C/[C@@H](C)[C@H]1CC[C@H]2C3=CC=C4C[C@@H](O)CC[C@]4(C)[C@H]3CC[C@]12C` [ergosterol], the “binding to Erg4” value at Erg4 is “bound”. The “shape of binding curve over increasing free ergosterol” value in the test on Ypk1, Hal5, and Rck2 was “saturable curve”. Also, the Ssk22 protein levels result on Ssk22 is on record as “restored Ssk22 levels”.
